Experimental data: PubChem BioAssay AID274 (DTP/NCI, 2004)
Values joined by “and” are separate entries in the source; they are usually repeats but may differ in a detail not shown here. Equal values may be shown once. Toxic doses and inconclusive results are not listed. How the source made its calls: active means survival T/C of 150% or more; inactive means T/C below 125% in these data. Numbered stars: 1 amine (or outer) side, 2 acyl side, 3 side chain; on linkers, the order of the positions; unused ones are H or OH. Bridge positions count the residues as written; N and C are the ends. Square brackets hold non-standard residues; d marks the D form. Peptide text beside a SMILES is read from it. I, II: the chains in the order shown. Actinocin(9to1) = Cc1c2oc3c(C)ccc(C(=O)[*:1])c3nc-2c(C(=O)[*:2])c(N)c1=O; NMeV = CN[CH](C(=O)O)C(C)C; Aze = O=C(O)[CH]1CCN1; Sar = CNCC(=O)O

System: BDF1 mice, Lewis lung carcinoma iv, survival T/C
Assay: NCI In Vivo Anticancer Drug Screen. Data for tumor model Lewis Lung Carcinoma (intravenous) in B6D2F1 (BDF1) mice
Details: endpoint: median survival time, higher = longer survival
Protocol: The antitumor activity of compounds was measured in mice bearing transplantable tumors. Survival or tumor size were measured and the results are expressed as the measurement made in the treated group (T) divided by the measurement made in the vehicle treated control group (C). The tumor model used in this assay is Lewis Lung Carcinoma (intravenous) in B6D2F1 (BDF1) mice

[1] = dose: 0.5 mg/kg/injection, schedule: Q01DX009 (ip), vehicle: saline
[2] = dose: 1.0 mg/kg/injection, schedule: Q01DX009 (ip), vehicle: saline
[3] = dose: 2.0 mg/kg/injection, schedule: Q01DX009 (ip), vehicle: saline
[4] = dose: 12.5 mg/kg/injection, schedule: Q01DX009 (ip), vehicle: saline with Tween-80
[5] = dose: 25.0 mg/kg/injection, schedule: Q01DX009 (ip), vehicle: saline with Tween-80
[6] = dose: 50.0 mg/kg/injection, schedule: Q01DX009 (ip), vehicle: saline with Tween-80
[7] = dose: 100.0 mg/kg/injection, schedule: Q01DX009 (ip), vehicle: saline with Tween-80
[8] = dose: 200.0 mg/kg/injection, schedule: Q01DX009 (ip), vehicle: saline with Tween-80
[9] = dose: 400.0 mg/kg/injection, schedule: Q01DX009 (ip), vehicle: saline with Tween-80
[10] = dose: 6.25 mg/kg/injection, schedule: Q01DX009 (ip), vehicle: Klucel (hydroxypropylcellulose) (HPC)
[11] = dose: 100.0 mg/kg/injection, schedule: Q01DX009 (ip), vehicle: Klucel (hydroxypropylcellulose) (HPC)

Measured: T/C

CC(=O)OC/C=C(C)/C=C/C=C(C)/C=C/C1=C(C)CCCC1(C)C
inactive: dose: 6.25 mg/kg/injection, schedule: Q01DX005 (ip), vehicle: saline with Tween-80 115 % of control | dose: 12.5 mg/kg/injection, schedule: Q01DX005 (ip), vehicle: saline with Tween-80 91 % of control | dose: 25.0 mg/kg/injection, schedule: Q01DX005 (ip), vehicle: saline with Tween-80 97 % of control | dose: 50.0 mg/kg/injection, schedule: Q01DX005 (ip), vehicle: saline with Tween-80 97 % of control | dose: 100.0 mg/kg/injection, schedule: Q01DX005 (ip), vehicle: saline with Tween-80 98 % of control | dose: 200.0 mg/kg/injection, schedule: Q01DX005 (ip), vehicle: saline with Tween-80 104 % of control

Nc1nc(=S)c2[nH]cnc2[nH]1
inactive: dose: 0.25 mg/kg/injection, schedule: Q01DX009 (ip), vehicle: saline 105 % of control | [1] 114 % of control | [2] 107 % of control | [3] 92 % of control

N[C@H](C(=O)O)[C@@H]1CC(Cl)=NO1
inactive: [1] 124 % of control | [2] 103 % of control | [3] 111 % of control | dose: 4.0 mg/kg/injection, schedule: Q01DX009 (ip), vehicle: saline 115 % of control

COC1/C=C/O[C@@]2(C)Oc3c(C)c(O)c4c(O)c(cc(O)c4c3C2=O)NC(=O)/C(C)=C\C=C\[C@H](C)C(O)[C@@H](C)[C@@H](O)[C@@H](C)[C@H](OC(C)=O)[C@@H]1C (some centres undefined)
inactive: [4] 102 % of control | [5] 101 % of control | [6] 103 % of control | [7] 107 % of control | [8] 102 % of control | [9] 111 % of control

O=C(CN1CC1)NCCCCCCCCNC(=O)CN1CC1
inactive: dose: 3.13 mg/kg/injection, schedule: Q01DX009 (ip), vehicle: Klucel (hydroxypropylcellulose) (HPC) 115 % of control | [10] 112 % of control | dose: 12.5 mg/kg/injection, schedule: Q01DX009 (ip), vehicle: Klucel (hydroxypropylcellulose) (HPC) 119 % of control

CN(C)c1ccc2c(SCC(=O)OCC(=O)[C@@]3(O)CC[C@H]4[C@@H]5CCC6=CC(=O)C=C[C@]6(C)[C@H]5C(=O)C[C@@]43C)c3ccc(N(C)C)cc3nc2c1
inactive: dose: 25.0 mg/kg/injection, schedule: Q01DX009 (ip), vehicle: Klucel (hydroxypropylcellulose) (HPC) 104 % of control | dose: 50.0 mg/kg/injection, schedule: Q01DX009 (ip), vehicle: Klucel (hydroxypropylcellulose) (HPC) 106 % of control | [11] 107 % of control | dose: 200.0 mg/kg/injection, schedule: Q01DX009 (ip), vehicle: Klucel (hydroxypropylcellulose) (HPC) 102 % of control | dose: 400.0 mg/kg/injection, schedule: Q01DX009 (ip), vehicle: Klucel (hydroxypropylcellulose) (HPC) 107 % of control

CC(C)C(=O)OCC1OC(n2cnc3c(=S)nc(N)[nH]c32)C(OC(=O)C(C)C)C1OC(=O)C(C)C (centres undefined)
inactive: dose: 3.12 mg/kg/injection, schedule: Q01DX009 (ip), vehicle: Klucel (hydroxypropylcellulose) (HPC) 97 % of control | [10] 90 % of control

Cc1c2oc3c(C)ccc(C(=O)NC4C(=O)NC(C(C)C)C(=O)N5CCC5C(=O)N(C)CC(=O)N(C)C(C(C)C)C(=O)OC4C)c3nc-2c(C(=O)NC2C(=O)NC(C(C)C)C(=O)N3CCC3C(=O)N(C)CC(=O)N(C)C(C(C)C)C(=O)OC2C)c(N)c1=O (centres undefined) (I: TV[Aze][Sar][NMeV] / II: TV[Aze][Sar][NMeV]; ester I:1-I:C, II:1-II:C; linker I:N-II:N via Actinocin(9to1); configuration not given here)
inactive: dose: 194.0 micrograms/kg/injection, schedule: Q04DX003 (ip), vehicle: saline + alcohol 87 % of control | dose: 270.0 micrograms/kg/injection, schedule: Q04DX003 (ip), vehicle: saline + alcohol 94 % of control | dose: 324.0 micrograms/kg/injection, schedule: Q04DX003 (ip), vehicle: saline + alcohol 95 % of control | dose: 450.0 micrograms/kg/injection, schedule: Q04DX003 (ip), vehicle: saline + alcohol 95 % of control | dose: 540.0 micrograms/kg/injection, schedule: Q04DX003 (ip), vehicle: saline + alcohol 109 % of control | dose: 648.0 micrograms/kg/injection, schedule: Q01DX001 (ip), vehicle: saline + alcohol 97 % of control | dose: 750.0 micrograms/kg/injection, schedule: Q04DX003 (ip), vehicle: saline + alcohol 108 % of control | dose: 1080.0 micrograms/kg/injection, schedule: Q01DX001 (ip), vehicle: saline + alcohol 98 % of control

O=C1NC(=O)/C(=C/C=C/c2ccccc2)S1
inactive: [4] 95 % of control | [5] 104 % of control | [6] 101 % of control | [7] 95 % of control | [8] 105 % of control | [9] 104 % of control

COC1/C=C\C=C(/C)C(=O)NC2=CC(=O)C=C(C2=O)C(OC)C(C)CC(OC)C(OC)C(C)/C=C(/C)C1OC(N)=O (centres undefined)
inactive: dose: 0.18 mg/kg/injection, schedule: Q01DX009 (ip), vehicle: Klucel (hydroxypropylcellulose) (HPC) 112 % of control | dose: 0.37 mg/kg/injection, schedule: Q01DX009 (ip), vehicle: Klucel (hydroxypropylcellulose) (HPC) 115 % of control | dose: 0.75 mg/kg/injection, schedule: Q01DX009 (ip), vehicle: Klucel (hydroxypropylcellulose) (HPC) 112 % of control | dose: 1.5 mg/kg/injection, schedule: Q01DX009 (ip), vehicle: Klucel (hydroxypropylcellulose) (HPC) 105 % of control

CN(N=O)C(=O)N[C@@H](C=O)[C@@H](O)[C@H](O)[C@H](O)CO
inactive: dose: 16.0 mg/kg/injection, schedule: Q01DX009 (ip), vehicle: other 109 % of control | dose: 25.0 mg/kg/injection, schedule: Q01DX009 (ip), vehicle: citric acid 110 % of control | dose: 32.0 mg/kg/injection, schedule: Q01DX009 (ip), vehicle: other 98 % of control | dose: 64.0 mg/kg/injection, schedule: Q01DX009 (ip), vehicle: other 112 % of control | dose: 100.0 mg/kg/injection, schedule: Q01DX009 (ip), vehicle: citric acid 124 % of control | dose: 128.0 mg/kg/injection, schedule: Q01DX009 (ip), vehicle: other 109 % of control

COc1cc(C(C)(C)C)cc(OC)c1C(O)(c1c(OC)cc(C(C)(C)C)cc1OC)c1c(OC)cc(C(C)(C)C)cc1OC
inactive: dose: 6.25 mg/kg/injection, schedule: Q01DX009 (ip), vehicle: saline with Tween-80 99 % of control and 106 % of control | [4] 98 % of control and 99 % of control | [5] 97 % of control and 102 % of control | [6] 99 % of control

C=CCNc1ccc(C)cc1
inactive: [11] 86 % of control
